Experimental data published in ChEMBL document CHEMBL4043066, “Drug Discovery Targeting Bromodomain-Containing Protein 4” (J Med Chem, 2017).

Columns and labels:
[1] = molecular target: T1, Bromodomain-containing protein 4 (Homo sapiens, UniProt O60885); test: Inhibition of His-tagged BRD4 (44 to 477 residues) (unknown origin) using acetyl-histone H4 as substrate after 35 mins by TR-FRET assay
MV4-11 [2] = test: Growth inhibition of human MV4-11 cells after 4 days by CellTiter-Glo assay; format: functional; conditions: MV4-11, 96 h
[3] = molecular target: T1, Bromodomain-containing protein 4; test: Inhibition of recombinant human N-terminal His6-tagged BRD4 bromodomain 1 expressed in Escherichia coli BL21(DE3) using biotinylated histone peptide as substrate after 60 mins by TR-FRET assay
[4] = Antitumor activity against human JJN3R cells xenografted subcutaneously in mouse assessed as tumor growth inhibition at 1 mg/kg, po relative to control; format: functional; conditions: JJN-3R, read-out: TGI
[5] = molecular target: T1, Bromodomain-containing protein 4; test: Inhibition of His-tagged BRD4 bromodomain 1 (K57 to E168 residues) (unknown origin) after 1 hr by TR-FRET assay
MX1 [6] = test: Antiproliferative activity against human MX1 cells incubated for >= 72 hrs by CellTiter-Glo assay; format: functional, cell-based; conditions: MX1, 72 h
[7] = molecular target: T1, Bromodomain-containing protein 4; test: Inhibition of recombinant His-tagged BRD4 bromodomain 1 (K57 to E168 residues) (unknown origin) after 1 hr by TR-FRET assay
[8] = molecular target: T1, Bromodomain-containing protein 4; test: Inhibition of recombinant His-tagged BRD4 bromodomain 2 (E352 to E168 residues) (unknown origin) after 1 hr by TR-FRET assay
MX1 [9] = test: Antiproliferative activity against human MX1 cells after 72 hrs by CellTiter-Glo assay; format: functional, cell-based; conditions: MX1, 72 h
MV4-11 [10] = test: Antiproliferative activity against human MV4-11 cells after 72 hrs by alamarBlue assay; format: functional, cell-based; conditions: MV4-11, 72 h
[11] = molecular target: T1, Bromodomain-containing protein 4; test: Inhibition of GST-tagged BRD4 bromodomain 1 (44 to 168 residues) (unknown origin) using biotinylated acetyl-histone H4 peptide as substrate after 30 mins in dark by AlphaScreen assay
MV4-11 [12] = test: Antiproliferative activity against human MV4-11 cells; format: functional, cell-based
[13] = molecular target: T1, Bromodomain-containing protein 4; test: Inhibition of recombinant human His-tagged BRD4 bromodomain 1 (44 to 168 residues) expressed in Escherichia coli BL21(DE3) after 30 mins by AlphaScreen assay
MT4 = test: Antiproliferative activity against human MT4 cells after 5 days by CellTiter-Glo assay; format: functional; conditions: MT4, 120 h
[14] = molecular target: T1, Bromodomain-containing protein 4; test: Inhibition of His-epitope tagged BRD4 bromodomain 1 (44 to 168 residues) (unknown origin) using biotinylated histone H4 as substrate after 1 hr by AlphaScreen assay
[15] = molecular target: T1, Bromodomain-containing protein 4; test: Inhibition of His-epitope tagged BRD4 bromodomain 2 (333 to 460 residues) (unknown origin) using biotinylated histone H4 as substrate after 1 hr by AlphaScreen assay
[16] = Metabolic stability in CD1 mouse liver microsomes assessed as compound remaining at 1 uM after 30 mins in presence of NADPH by LC/MS analysis; format: ADME, microsome; conditions: read-out: Stability
[17] = Metabolic stability in human liver microsomes assessed as compound remaining at 1 uM after 30 mins in presence of NADPH by LC/MS analysis; format: ADME, microsome; conditions: read-out: Stability
[18] = molecular target: T1, Bromodomain-containing protein 4; test: Inhibition of recombinant His-tagged BRD4 (unknown origin) using biotinylated acetyl-histone H4 as substrate by AlphaLisa assay
Mus musculus = species: Mus musculus; test: Antiinflammatory activity in CD1 mouse assessed as inhibition of LPS-induced IL-6 production pretreated for 1 hr followed by LPS stimulation after 2 hrs by immunoassay relative to control; format: functional
MV4-11 [19] = test: Downregulation of BRD4 in human MV4-11 cells at 100 nM after 18 hrs by immunoblot analysis relative to control; format: functional
[20] = molecular target: T1, Bromodomain-containing protein 4; test: Inhibition of biotin-labeled acetylated peptide binding to BRD4 bromodomain 1 (unknown origin) expressed in Escherichia coli BL21 after 1 hr by BROMOscan assay
[21] = molecular target: T1, Bromodomain-containing protein 4; test: Inhibition of GST-tagged BRD4 (unknown origin) using biotinylated acetyl-histone H4 peptide as substrate after 30 mins by AlphaScreen assay

CC(=O)N1CC(n2cc(C3CC3)c3c2C(c2ccc(Cl)cc2)N(c2cc(C)c4nnn(C)c4n2)C3=O)C1 (configuration not stated)
IC50 [1]: < 11 nM
GI50 (MV4-11 [2]): 0.3 nM

[2H]C([2H])([2H])c1nnn(C)c1-c1cnc2c3ccc(C(C)(C)O)cc3n([C@H](c3ccccc3)C3CCC(F)(F)CC3)c2c1
IC50 [3]: < 5 nM
inhibition in vivo at 1 mg/kg [4]: 93%

CCS(=O)(=O)Nc1ccc(Oc2ccc(F)cc2F)c(-c2cn(C)c(=O)c3[nH]c(C#CCOC)cc23)c1
Ki [5]: 1.6 nM
EC50 (MX1 [6]): 48 nM

Cc1cc(N2C(=O)c3c(C4CC4)cn(C4COC4)c3C2c2ccc(Cl)cc2)cn2c(C)nnc12 (configuration not stated)
GI50 (MV4-11 [2]): 2.9 nM

CCOc1cc(=O)n(C)cc1-c1cc(NC(=O)CCc2ccccc2)ccc1Oc1ccc(F)cc1F
IC50 [7]: 69 nM
IC50 [8]: 11 nM
EC50 (MX1 [9]): 398 nM

CNC(=O)N1N=C(c2ccc(N3CC4(CCS4(=O)=O)C3)cc2)c2cc(-n3nc(C)cc3C)ccc2C[C@@H]1C
IC50 (MV4-11 [10]): 80 nM

COC[C@@H](C)n1c(-c2cn3c(C)nnc3c(NC(C)C)n2)nc2cc3c(cc21)N(C(C)C)S(=O)(=O)C3(C)C
IC50 [11]: 17 nM

[2H]C([2H])([2H])c1nnn(C)c1-c1cnc2c3ccc(C(C)(C)O)c(F)c3n([C@H](c3ccccc3)C3CCOCC3)c2c1
IC50 [3]: < 5 nM
inhibition in vivo at 1 mg/kg [4]: 103%

CC1=C(C)C2C(c3ccc(Cl)cc3)=N[C@@H](CC(=O)NCCOCCOCCOCCOCCOCCOCCOCCNC(=O)C[C@@H]3N=C(c4ccc(Cl)cc4)c4c(sc(C)c4C)-n4c(C)nnc43)c3nnc(C)n3C2S1 (some centres not stated)
IC50 (MV4-11 [12]): 0.17 nM
IC50 [13]: 3.1 nM

CNC(=O)N1N=C(c2ccc(N3CC4(CCS4(=O)=O)C3)cc2)c2cc(OC(F)(F)F)ccc2C[C@@H]1C
IC50 (MV4-11 [10]): 30 nM

Cc1noc(C)c1-c1cc(C(O)(c2cnccn2)c2c(F)cccc2F)c2[nH]c(=O)[nH]c2c1 (configuration not stated)
CC50 (MT4): 9.7 nM

Cc1noc(C)c1-c1cc(-c2c(C3CC3)n[nH]c2C2CC2)c2[nH]c(=O)[nH]c2c1
CC50 (MT4): 9.1 nM

Cc1[nH]c(-c2ccccc2NC2CCCCC2F)cc1C(N)=O (configuration not stated)
EC50 (MX1 [6]): 433 nM

CC(=O)N1c2ccc(-c3cnn([C@H]4CCNC[C@H]4F)c3)c(OCC3CCC3)c2CC[C@H]1C
IC50 [14]: < 100 nM
IC50 [15]: < 50 nM

CCNC(=O)CC1N=C(C2CCCCC2)c2cc(OC)ccc2-c2cn(C)c(=O)cc21 (configuration not stated)
EC50 (MV4-11 [10]): 8 nM

COc1cc2c(cc1-c1c(C)noc1C)ncc1nc(CN3CCOCC3)n([C@H](C)COC(F)F)c12
remaining at 0.5 h, 1 µM [16]: 3.7%
remaining at 0.5 h, 1 µM [17]: 1.9%

CNC(=O)N1N=C(c2ccc(N3C[C@H]4CC[C@@H](C3)O4)cc2)c2cc(OC)c(OC)cc2C[C@@H]1C
IC50 (MV4-11 [10]): 30 nM

CCS(=O)(=O)c1ccc2c(c1)-c1cn(C)c(=O)cc1OCCCCc1cc(Cl)ccc1O2
EC50 (MX1 [9]): 5.7 nM
IC50 [18]: 0.93 nM
inhibition (INH) (Mus musculus): 83%

Cc1sc2c(c1C)C(c1ccc(Cl)cc1)=N[C@@H](CC(=O)NCCCCNC(=O)COc1cccc3c1C(=O)N(C1CCC(=O)NC1=O)C3=O)c1nnc(C)n1-2 (some centres not stated)
Activity (MV4-11 [19]): >80%

Cc1sc2c(c1C)C(c1ccc(Cl)cc1)=N[C@@H](CC(=O)OCCCCCCO)c1nnc(C)n1-2
Kd [20]: 0.43 nM

CCS(=O)(=O)c1ccc2c(c1)-c1cn(C)c(=O)cc1OCCCCc1cc(F)cc(F)c1O2
EC50 (MX1 [9]): 8.7 nM
IC50 [18]: 1.3 nM
inhibition (INH) (Mus musculus): 81%

Cc1noc(C)c1-c1ccc2c(c1)C(O)(c1ccccc1)C(=O)N2 (configuration not stated)
IC50 (MV4-11 [12]): 58 nM

Cc1cc(-c2nc3ccc(N4CCOC[C@@H]4C)cc3n2[C@@H](C)c2ccccc2)cn(C)c1=O
IC50 [11]: 12 nM

Cc1noc(C)c1-c1ccc2c(c1)C(c1ccccc1)N(C)C(=O)N2 (configuration not stated)
IC50 [21]: 27 nM
